Article PMC4707489, “A novel cell-penetrating peptide suppresses breast tumorigenesis by inhibiting β-catenin/LEF-1 signaling” (Scientific Reports, 2016)

Columns and labels:
MCF-7 cells [1] = assay: Cell growth (CCK-8); type: cell-based, human
Procedure: (§2) Cell growth was analyzed using 2-(2-methoxy-4-nitrophenyl)-3-(4-nitroph enyl)-5-(2,4-disulfophenyl)-2H-tetrazolium, monosodium salt, and the Cell Counting Kit-8 (CCK-8, Sigma). […] After culturing for another 48 hr, cell growth was analyzed by CCK-8 and the optical density was detected at 450 nm. The growth ratio was normalized to the cells without treatment.

ZR-75-30 cells = assay: Cell growth (CCK-8), HER2 positive cell line; type: cell-based, human; details: ZR-75-30, 100 μmol/l, CCK-8 at 48 hr post-transfection (Fig. 6f)
Procedure: as §2

β-catenin = assay: Peptide-protein interaction by immunoprecipitation and PLA; type: binding, human
Procedure: Immunoprecipitation and western blotting were performed as described previously. MCF-7 and MDA-MB-231 cells were harvested in 4 °C phosphate-buffered saline and cell pellets were lysed with RIPA lysis buffer (Millipore, Bedford, MA, USA) for 30 min on ice. Cell lysis supernatant liquid was obtained by centrifugation at 10,000 × g for 10 min, incubated with protein-G beads (Roche, Indianapolis, IN) and anti-β-catenin, and subjected to western blotting. For the western blotting assay, cellular extract proteins were separated by SDS-polyacrylamide gel (SDS-PAGE) and transferred to nitrocellulose membrane (Millipore) using a dry transfer apparatus (Bio-Rad). […]
MCF-7 and MDA-MB-231 cells were cultured in 35-mm plates with cover slides on the plate bottom and treated with NLS-BLBD-6, TAT-BLBD-6 and TAT-NLS-BLBD-6 peptide for 24 hr. […] For the immunofluorescence assay, the slides were incubated with primary antibodies, anti-β-catenin (Epitomics) and anti-TAT (Santa Cruz), for 6 hr, and Alexa-488 fluorescence secondary antibodies for 1 hr. […] For the TUNEL assay, apoptosis was analyzed by the Apo-BrdU-red DNA Fragmentation Assay kit, according to the manufacturer’s protocol (BioVision, Mountain View, CA, USA). For the PLA, the protein–protein interaction assay was analyzed by Duolink® using PLA® Technology, according to the manufacturer’s protocol (Olink Bioscience, Uppsala, Sweden). […]

MDA-MB-231 cells [2] = assay: Cell cycle analysis, sub-G1 (propidium iodide, flow cytometry); type: cell-based, human; details: MDA-MB-231, 100 μmol/l peptide, flow cytometry (Fig. 3a)
Procedure: MCF-7 and MDA-MB-231 cells were plated in 6-well plates for 24 hr, and the medium was replaced with fresh culture medium containing 100 μmol/l peptide. After incubation for 24 hr, the cells were harvested by trypsinization and then fixed with 70% 4 °C ethanol. Intracellular DNA was stained with […] propidium iodide in the dark for 30 min at room temperature, and the percentages of sub-G1 cells were determined by flow cytometry (BD LSRII analyzer; BD Biosciences).

MCF-7 cells [3] = assay: Wound-healing migration assay; type: cell-based, human; details: MCF-7, 100 μmol/l, 48 hr post-transfection, vs control or TAT-NLS-BLBD-6m (Fig. 3d)
Procedure: (§1) Transwell chambers of […] pore size were used in the in vitro invasion assay. MCF-7 and MDA-MB-231 cells were seeded onto the upper chamber and incubated with TAT-NLS-BLBD-6 and TAT-NLS-BLBD-6m peptide and 10% fetal bovine serum medium were added to the bottom chamber well. After 24 hr, cells invading the lower chamber were fixed with 4% paraformaldehyde solution and stained with 0.1% crystal violet for 30 min at 37 °C. Three random field images were obtained by microscopy, and the number of invading cells were counted. For the migration assay, MCF-7 and MDA-MB-231 cells were seeded onto 6-well plates. After 24 hr, an artificial wound was created using a 10-μl pipette tip, and the wound was incubated with TAT-NLS-BLBD-6 or TAT-NLS-BLBD-6m for 24 hr at 37 °C. The images of wound healing were captured by microscopy, and the wound healing distances were calculated by Image J (U.S. National Institutes of Health, Bethesda, MD, USA). For the colony formation assay, MCF-7 and MDA-MB-231 cells were seeded into 10-cm dishes with the medium containing TAT-NLS-BLBD-6 or TAT-NLS-BLBD-6m. After 2 weeks, cells were fixed with 4% paraformaldehyde solution and stained with 0.1% crystal violet for 30 min at 37 °C.

MDA-MB-231 cells [4] = assay: Wound-healing migration assay; type: cell-based, human; details: MDA-MB-231, 100 μmol/l, 48 hr post-transfection, vs control or TAT-NLS-BLBD-6m (Fig. 3d)
Procedure: as §1

[5] = Body weight and toxicity in xenograft models; type: in vivo, mouse
Excerpt: All animal experiments were approved by the Kaohsiung Medical University Institutional Animal Care and Use Committee (IACUC Approval No: 101156) and we accordance with the approved guidelines. Female nude mice (4–5 weeks old) were obtained from the National Laboratory Animal Center (Taipei, Taiwan). Xenograft tumor models were established by subcutaneous injection of 1 × 10^7 MCF-7-YFP or MDA-MB-231-GFP cells into the right flanks of mice. Mice with palpable tumors were randomly divided into three groups with five animals in each group. The mice were treated with control peptide, […], 1 and 10 mg/kg TAT-NLS-BLBD-6 by intratumoral injection once every 2 days for 35 days. The fluorescence density was analyzed by an In Vivo Imaging System (IVIS) (Berthold Technologies, Bad Wildbad, Germany), and the tumor volumes (V) of nude mice were calculated by: V = length × diameter^2 × 0.5. For zebrafish xenotransplantation, zebrafishes (Danio rerio) were maintained at 28 °C in an air incubator, and 1 × 10^4 MCF-7-GFP or MDA-MB-231-GFP cells combined with TAT-NLS-BLBD-6 or control peptide were injected into the zebrafish embryos according to the previously described protocol. The fluorescence density was measured 24 and 28 hr after injection using an epifluorescence microscope.

Substance: H-TAT-NLS-ATDEMIPF-NH2 [TAT-NLS-BLBD-6]
- cell growth (MCF-7 cells [1]; 75 μmol/l peptide, MCF-7, CCK-8, means of three experiments (Fig. 1b)): inhibited the growth
- time and dose dependence of cell growth (MCF-7 cells [1]; MCF-7, indicated concentrations, 24, 48 and 72 hr (Fig. 1c,d)): inhibited breast cancer cell growth in a time- and dose-dependent manner
- cell growth (ZR-75-30 cells): inhibits the growth
- binding to β-catenin (β-catenin; MCF-7 cell nuclei, immunoprecipitation and PLA, 2 hr post-transfection (Fig. 2b,c)): bound to the β-catenin elements
- binding to β-catenin (β-catenin; MDA-MB-231 cell nuclei, PLA, 100 μmol/l, 2 hr post-transfection (Fig. 2c)): bound to the β-catenin elements
- sub-G1 phase region (pro-apoptotic effect) (MDA-MB-231 cells [2]): 43.10%
- migration (wound healing) (MCF-7 cells [3]): inhibited the mobility
- migration (wound healing) (MDA-MB-231 cells [4]): inhibited the mobility
- body weight ([5]; nude mice, 1 and 10 mg/kg intratumoral once every 2 days for 35 days, vs control peptide): without having any effect on body weight
- signs of toxicity ([5]; nude mouse and zebrafish xenotransplantation models): no signs of toxicity
- cell growth of normal mammary epithelial cells (H184B5F5/M10 cells): did not inhibit the growth
